Literature values in patent US20200246411A1, “ANTI-DIARRHOEAL HERBAL COMPOSITIONS” (SRH NUTRITION LLP, priority 2017, published 2020).

Settings: conventional drug use

SMILES	disadvantages / adverse reactions
CC(=O)SCC(Cc1ccccc1)C(=O)NCC(=O)OCc1ccccc1 (centres unmarked) [Racecadotril]	Cause some adverse reactions such as hypokalemia, bronchospasm,
CCOC(=O)C1(c2ccccc2)CCN(CCC(C#N)(c2ccccc2)c2ccccc2)CC1 [Diphenoxylate]	Therapeutic doses induce adverse reactions in the CNS (confusion,
CN(C)C(=O)C(CCN1CCC(O)(c2ccc(Cl)cc2)CC1)(c1ccccc1)c1ccccc1 [Loperamide]	Frequent adverse reactions induced are hypersensibility reactions
[Bi] [Bismuth]	Causes adverse reactions (dizziness, cephalea, constipation, dark stools,
COc1ccc2c3c1O[C@H]1[C@@H](O)C=C[C@H]4[C@@H](C2)N(C)CC[C@@]341 [Codeine]	Produces secondary effects such as nausea, dizziness and acts against
